Experimental data taken from patent US20110098351A1, “Lactone compounds which can be used as antioxidant agents in pharmaceutical, cosmetic or food compositions and their method of preparation” (COMMISSISSARIAT A L'ENERGIE ATOMIQUE, priority 2002, published 2011).

Columns and labels:
[1] = test system: RDM4 cell cultures (AKR mouse lymphomas); test: Protection of RDM4 cells subjected to ionizing radiation, Uptiblue test; assay type: cell-based; conditions: for number of living cells after irradiation (Uptiblue fluorescence, A.F.U.): 0.12 to 20 μg/ml added two hours before X rays 15 MV, 8 Gy, sixth day, FIG. 6
Procedure: This test consists in measuring, in the presence or in the absence of norbadione in diacid or dipotassium salt form, the rate of survival of cells treated with ionizing radiation, with the aid of selective indicators for certain cellular organelles such as mitochondria.
Samples of norbadione in diacid or dipotassium salt form are added to RDM4 cell cultures (AKR mouse lymphomas) in increasing concentrations (from 0.12 to 20 μg/ml), two hours before irradiation. This is carried out by exposing microtest plates containing the cells to X rays of 15 MV, at 8 Gy, the culture medium being unchanged.
The number of living cells is determined on the sixth day by means of the Uptiblue test (which consists in measuring the micochondrial activity of the cells). The Uptiblue reagent (reazurin, also marketed under the ALAMAR BLUE trade mark) is a coloured oxidation-reduction indicator. The reazurin (blue and nonfluorescent) is reduced to resorufin (pink and fluorescent) by living cells.
Experimentally, the Uptiblue (diluted ¼ in the culture medium) is added to the cells in an amount of 20 μl per 200 μl well. After incubating for 4 hours at 37° C., the fluorescence is measured at a wavelength of 590 nm, after excitation at a wavelength of 530 nm with the aid of a fluorescence microplate reader (Fluorolite 1000, Dynex). The fluorescence intensity is proportional to the number of living cells. It is expressed as “arbitrary fluorescence unit”. This value depends on the setting of the apparatus (in particular the voltage) and the background noise (due to the fluorescence emitted by wells not containing cells, but containing Uptiblue). The latter value is subtracted from the experimental values.
The results of this test are grouped together in FIG. 6, which represents the fluorescence observed which makes it possible to quantify the number of living cells, the said fluorescence being expressed as arbitrary fluorescence units on the y-axis of the graph (A.F.U) as a function of the concentration of norbadione in the diacid or dipotassium salt form, noted [Nor-A] or [Nor-B] (in μg/ml).

[2] = test system: TNF-α; test: TNF-α production by lipopolysaccharide-activated human PBMC, cytometric sandwich ELISA; assay type: cell-based; conditions: 10^-8 M to 10^-5 M, Salmonella abortus equi lipopolysaccharide 5 μg/ml, 24 hours, FIGS. 4 and 5
Procedure: (§1) This liposaccharide is an endotoxin located on the outer membrane of Gram-negative bacteria. In particular, it stimulates the production of proinflammatory cytokines by the mononuclear cells (monocytes, microphages) of the infected host.
(§2) This test is carried out in the following manner. […]
(§3) More specifically, the detection of the cytokines present in the samples is measured with the aid of a “sandwich” type cytometric ELISA assay. Microparticles (beads) of polystyrene (of 6 different types, each being labelled with a different quantity of fluorescent dye whose FL-3 emission wavelength is about 650 nm) are coupled to an antibody specific for one of the […] TNFα, IL-2, IL-10. […] The cytokines captured are detected with the aid of a directly performed immunological test which uses 2 antibodies specific for each cytokine, coupled to phycoerythrin which emits at an FL-2 wavelength of about 585 nm (Ab-PE). After washing the excess Ab-PE, the presence of the cytokines is measured by flow cytometry.
(§4) The fluorescence is measured based on the 6 FL-3 fluorescence intensities and based on the FL-2 wavelength. The intensity of the […] fluorescence makes it possible to determine the quantity of each cytokine present in the sample (in comparison with standard curves). […]

[3] = test system: Human thyroid carcinoma K1 cells; test: Protection of K1 cells against cisplatin, sulphorhodamine B test; assay type: cell-based; conditions: norbadione 20 μg/ml added two hours before cisplatin 12 to 100 μM, two days, FIG. 7
Procedure: This test consists in measuring, in the presence of norbadione in the diacid or dipotassium salt form, the rate of survival of cells treated with cisplatin.
Human thyroid carcinoma K1 cells are cultured in flat-bottomed 96-well microtest plates in the presence of a single concentration (20 μg/ml) of norbadione in the diacid or dipotassium salt form. After two hours, a genotoxic agent, cisplatin, is added to the culture medium in increasing concentrations (from 12 to 100 μm). Two days later, the number of cells is determined by means of the sulphorhodamine B (termed SRB) test, which measures the quantity of cellular proteins.
Sulphorhodamine B (termed SRB) is an anionic dye which binds electrostatically to cellular proteins. This test is frequently used for the evaluation of the cytotoxic and cytostatic activities of novel antitumour drugs.
Further information relating to this technique is available in the article by Papazisis et al. “Optimization of the sulforhodamine B colorimetric assay”, J. Immunol. Meth, 208, pages 151-158, 1997 [8].
The results of this test are grouped together in FIG. 7, which represents the fluorescence observed after addition of SRB (expressed as arbitrary fluorescence units) as a function of the cisplatin concentration (in μM).

[4] = test system: IL-10; test: IL-10 production by lipopolysaccharide-activated human PBMC, cytometric sandwich ELISA; assay type: cell-based; conditions: 10^-8 M to 10^-5 M, Salmonella abortus equi lipopolysaccharide 5 μg/ml, 24 hours, FIGS. 4 and 5
Procedure: as §1, §2, §3, §4

[5] = test system: thymidine; test: Thymidine degradation test, chemical oxidant stress (Fenton's reagent), competition ELISA of remaining thymidine; assay type: biochemical; conditions: dipotassium salt (Nor-B); Fenton's reagent 0.35 mM FeSO4/EDTA, 35 mM H2O2; thymidine 70 μM, antioxidant 20 μM; FIG. 3; compared with conventional antioxidants (1)-(6)
Procedure: (§5) The evaluation of the antioxidant activity of the dipotassium salt of norbadione was carried out by a screening test in vitro.
(§6) This test is based on the monitoring of the degradation of thymidine subjected to various oxidant stresses in the presence of various antioxidant agents, which are norbadione in dipotassium salt form (called Nor-B in FIGS. 1 to 3) in accordance with the invention, and the following antioxidant agents: quercitin (1), fisetin (2), myricetin (3), catechin (4), 7-hydroxy-4-methyl-8-nitrocoumarin (5), Trolox (6) in FIGS. 1 to 3.
(§7) In the presence of an antioxidant, thymidine is protected more or less effectively according to the nature of the said antioxidant. The efficacy of the antioxidant is quantified by assaying the remaining thymidine (quantified as % on the y-axis of the graph) with the aid of an immunoenzymatic assay of the so-called “competition” ELISA type. This ELISA assay consists in producing competition, for binding to a thymidine-specific monoclonal antibody attached to a solid phase, between the thymidine remaining at the end of test and the thymidine labelled with an enzyme (acetylcholine esterase). After washing, the bound enzyme is quantified by colorimetric detection with the aid of 5,5′-dithiobis(2-nitrobenzoic acid) (termed Ellmann's reagent) and in the presence of […]. […]

[6] = test system: rat aorta rings; test: Contraction of rat aorta rings induced by pyrogallol (superoxide radicals); conditions: dipotassium salt form, 100 μM; FIG. 8
Procedure: (§8) The objective of this example is to show the antioxidant activity of norbadione in the dipotassium salt form on rat aorta rings.
During a first series of tests, rat aorta rings are subjected, in a first instance, to pyrogallol, which generates superoxide radicals, these radicals inducing contraction of the rat aorta rings and the rate of contraction of these rings is measured in the absence of norbadione.
In a second instance, the same operations are repeated, under the same conditions as those mentioned above, this time in the presence of norbadione.
The results are grouped together in FIG. 8, which represents the rate of vascular contraction of the rings C(g) as a function of the concentration of pyrrogallol [Pyr] (μM), in the absence of norbadione (curve a) and in the presence of norbadione at the concentration of 100 μM (curve b).

[7] = test system: rat aorta rings; test: Relaxation of rat aorta rings induced by SYN-1 (3-morpholinosydnonimine, NO radicals); conditions: dipotassium salt form, 100 μM; FIG. 9
Procedure: as §8
During a second series of tests, rat aorta rings are subjected to SYN-1 (3-morpholinosydnonimine), which generates NO radicals, inducing relaxation of the rat aorta rings, and the rate of relaxation of these rings is measured. In the presence of norbadione, the rate of relaxation of the rings is measured under the same conditions as those mentioned above. The results are presented in FIG. 9, which represents the rate of vascular relaxation of the rings R(%) as a function of the Sin−1 concentration [Sin−1] (μM), in the absence of norbadione (curve a) and in the presence of norbadione (100 μM) (curve b).

[8] = test system: thymidine; test: Thymidine degradation test, ultraviolet irradiation at 254 nm with H2O2, competition ELISA of remaining thymidine; assay type: biochemical; conditions: dipotassium salt (Nor-B); UV 254 nm (1.75 J/cm^2), 5 mM H2O2; thymidine 70 μM, antioxidant 100 μM; FIG. 2; compared with conventional antioxidants (1)-(6)
Procedure: as §5, §6, §7

[9] = test system: thymidine; test: Thymidine degradation test, gamma irradiation (caesium 137), competition ELISA of remaining thymidine; assay type: biochemical; conditions: dipotassium salt (Nor-B); gamma irradiation 3 h 30 min, 137Cs; thymidine 15 μM, antioxidant 12 μM; FIG. 1; compared with quercetin, fisetin, myricetin, catechin, 7-hydroxy-4-methyl-8-nitrocoumarin, Trolox
Procedure: as §5, §6, §7

Row | Compound | number of living cells after irradiation (Uptiblue fluorescence, A.F.U.) ([1]; RDM4 cells) | number of living cells after irradiation (Uptiblue fluorescence, A.F.U.) ([1]; RDM4 cells, listed as norbadione diacid form) | production of the cytokine TNF-α (percentage response relative to control) [2] | cytotoxicity of cisplatin in the presence of norbadione (SRB test) [3] | production of the cytokine IL-10 (percentage response relative to control) [4] | number of living cells after irradiation (Uptiblue fluorescence, A.F.U.) ([1]; RDM4 cells, listed as norbadione disalt form) | antioxidant power (percentage of thymidine remaining after oxidant stress) [5] | contraction of the aorta rings caused by pyrogallol [6] | number of living cells after irradiation (Uptiblue fluorescence) at the highest concentration ([1]; RDM4 cells, X rays 8 Gy, from a norbadione concentration of 20 μg/ml) | effect on the growth and the viability of the RDM4 cells ([1]; without irradiation, even at 20 μg/ml) | relaxation of the aorta rings caused by SYN-1 [7] | antioxidant power (percentage of thymidine remaining after oxidant stress) [8] | antioxidant power (percentage of thymidine remaining after oxidant stress) [9]
1 | O=C1O/C(=C(/C(=O)O)c2ccc(O)cc2)C(O)=C1c1cc2c3c(c(O)cc(C4=C(O)/C(=C(\C(=O)O)c5ccc(O)cc5)OC4=O)c3c1)OC2=O [Nor-A, norbadione] | large increase | protects the cells against ionizing radiation in a significant and dose-dependent manner | significant dose-dependent reduction | very markedly attenuated | significant dose-dependent reduction | – | – | – | – | – | – | – | –
2 | O=C1O/C(=C(/C(=O)[O-])c2ccc(O)cc2)C(O)=C1c1cc2c3c(c(O)cc(C4=C(O)/C(=C(\C(=O)[O-])c5ccc(O)cc5)OC4=O)c3c1)OC2=O.[K+].[K+] [Nor-B, norbadione] | large increase | – | significant dose-dependent reduction | very markedly attenuated | significant dose-dependent reduction | protects the cells against ionizing radiation in a significant and dose-dependent manner | – | – | – | – | – | – | –
3 | norbadione | – | – | – | – | – | – | best antioxidant power | suppressed | decreases considerably | without effect | reduced | best antioxidant power | best antioxidant power
